Data as given in US8247211B2, “Glycopeptide antibiotics” (American Cyanamid Company, priority 2001, dated 2012).
Converted amounts (≈) assume the structure as drawn.

Experiments:
Assay in all cases: In vitro antibacterial evaluation: minimum inhibitory concentration (MIC), broth dilution method
Format in all cases: cell-based
[1] = test system: Enterococcus sp.
Method in brief: (§1)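 Test strains, among them recent clinical isolates carrying methicillin, penicillin and/or vancomycin resistance, were inoculated at 5×10^5 CFU/mL. A broth dilution series spanning 64-0.06 μg/mL in Muller-Hinton II […] (NCCLS M7-A2) defined the MIC as the lowest growth-inhibiting concentration.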

[2] = test system: Escherichia coli; conditions: strain GC 4560
Method in brief: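 Following NCCLS approved standard M7-A2, compounds are serially diluted from 64 to 0.06 μg/mL in Muller-Hinton II […] and inoculated at 5×10^5 CFU/mL; the MIC is the minimum concentration at which growth is inhibited.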

[3] = test system: Staphylococcus sp.; conditions: broth dilution, 18 hours at 35° C.
Method in brief: as §1

[4] = test system: Streptococcus sp.
Method in brief: as §1

[5] = broth dilution, inoculum 5×10^5 CFU/mL, 18 hours at 35° C.

## CCOc1cc(C2OCC3OC(OC4C(CO)OC(Oc5ccc(CC6NC(=O)C(C(C)c7ccccc7)NC(=O)CNC(=O)C(CO)NC(=O)C(C(O)C7CNC(=N)N7C7OC(CO)C(O)C(O)C7O)NC(=O)C(C(O)C7CNC(=N)N7)NC6=O)cc5)C(O)C4O)C(O)C(O)C3O2)ccc1[N+](=O)[O-] (stereo not drawn) [Example 167, Cyclo[glycyl-β-methylphenylalanyl-O-[4-O-[4,6-O-(3-ethoxy-4-nitrobenzylidene)hexopyranosyl]hexopyranosyl]tyrosyl-3-(2-iminoimidazolidin-4-yl)seryl-3-(3-hexopyranosyl-2-iminoimidazolidin-4-yl)serylseryl]]
[1]; [5]
  MIC Enterococcus avium (GC 4558): 32 mg/L (≈ 21.7 µM)
  MIC Enterococcus faecalis (ATCC 29212): 32 mg/L (≈ 21.7 µM)
  MIC Enterococcus faecalis (GC 2242): 32 mg/L (≈ 21.7 µM)
  MIC Enterococcus faecalis (GC 2691): 32 mg/L (≈ 21.7 µM)
  MIC Enterococcus faecalis (GC 3059): 32 mg/L (≈ 21.7 µM)
  MIC Enterococcus faecalis (GC 4552): 32 mg/L (≈ 21.7 µM)
  MIC Enterococcus faecalis (GC 4553): 32 mg/L (≈ 21.7 µM)
  MIC Enterococcus faecalis (GC 4554): 32 mg/L (≈ 21.7 µM)
  MIC Enterococcus faecalis (GC 6189): 32 mg/L (≈ 21.7 µM)
  MIC Enterococcus faecium (GC 2243): 32 mg/L (≈ 21.7 µM)
  MIC Enterococcus faecium (GC 4556): 32 mg/L (≈ 21.7 µM)
  MIC Enterococcus faecium (GC 4557): 8 mg/L (≈ 5.43 µM)
[1]; strain ATCC 29212
  MIC Enterococcus faecalis (ATCC 29212): 32 mg/L (≈ 21.7 µM)
[1]; strain GC 2242
  MIC Enterococcus faecalis (GC 2242): 32 mg/L (≈ 21.7 µM)
[1]; strain GC 2243
  MIC Enterococcus faecium (GC 2243): 32 mg/L (≈ 21.7 µM)
[1]; strain GC 2691
  MIC Enterococcus faecalis (GC 2691): 32 mg/L (≈ 21.7 µM)
[1]; strain GC 3059
  MIC Enterococcus faecalis (GC 3059): 32 mg/L (≈ 21.7 µM)
[1]; strain GC 4552
  MIC Enterococcus faecalis (GC 4552): 32 mg/L (≈ 21.7 µM)
[1]; strain GC 4553
  MIC Enterococcus faecalis (GC 4553): 32 mg/L (≈ 21.7 µM)
[1]; strain GC 4554
  MIC Enterococcus faecalis (GC 4554): 32 mg/L (≈ 21.7 µM)
[1]; strain GC 4556
  MIC Enterococcus faecium (GC 4556): 32 mg/L (≈ 21.7 µM)
[1]; strain GC 4557
  MIC Enterococcus faecium (GC 4557): 8 mg/L (≈ 5.43 µM)
[1]; strain GC 4558
  MIC Enterococcus avium (GC 4558): 32 mg/L (≈ 21.7 µM)
[1]; strain GC 6189
  MIC Enterococcus faecalis (GC 6189): 32 mg/L (≈ 21.7 µM)
[2]
  MIC Escherichi coli (GC 4560): 8 mg/L (≈ 5.43 µM)
[3]; 5×10^5 CFU/mL
  MIC Coagulase Negative Staphylococcus (GC 4547): 8 mg/L (≈ 5.43 µM)
  MIC Coagulase Negative Staphylococcus (GC 4548): 8 mg/L (≈ 5.43 µM)
  MIC Coagulase Negative Staphylococcus (GC 4549): 8 mg/L (≈ 5.43 µM)
  MIC Coagulase Negative Staphylococcus (GC 4551): 16 mg/L (≈ 10.9 µM)
  MIC Coagulase Negative Staphylococcus (GC 6257): 8 mg/L (≈ 5.43 µM)
  MIC Staphylococcus aureus (ATCC 29213): 16 mg/L (≈ 10.9 µM)
  MIC Staphylococcus aureus (GC 1131): 16 mg/L (≈ 10.9 µM)
  MIC Staphylococcus aureus (GC 3051): 16 mg/L (≈ 10.9 µM)
  MIC Staphylococcus aureus (GC 3053): 16 mg/L (≈ 10.9 µM)
  MIC Staphylococcus aureus (GC 4541): 8 mg/L (≈ 5.43 µM)
  MIC Staphylococcus aureus (GC 4542): 16 mg/L (≈ 10.9 µM)
  MIC Staphylococcus aureus (GC 4544): 16 mg/L (≈ 10.9 µM)
  MIC Staphylococcus aureus (GC 4545): 16 mg/L (≈ 10.9 µM)
  MIC Staphylococcus aureus-SMITH (GC 4543): 16 mg/L (≈ 10.9 µM)
  MIC Staphylococcus haemolyticus (GC 4546): 16 mg/L (≈ 10.9 µM)
[3]; strain ATCC 29213
  MIC Staphylococcus aureus (ATCC 29213): 16 mg/L (≈ 10.9 µM)
[3]; strain GC 1131
  MIC Staphylococcus aureus (GC 1131): 16 mg/L (≈ 10.9 µM)
[3]; strain GC 3051
  MIC Staphylococcus aureus (GC 3051): 16 mg/L (≈ 10.9 µM)
[3]; strain GC 3053
  MIC Staphylococcus aureus (GC 3053): 16 mg/L (≈ 10.9 µM)
[3]; strain GC 4541
  MIC Staphylococcus aureus (GC 4541): 8 mg/L (≈ 5.43 µM)
[3]; strain GC 4542
  MIC Staphylococcus aureus (GC 4542): 16 mg/L (≈ 10.9 µM)
[3]; strain GC 4543
  MIC Staphylococcus aureus-SMITH (GC 4543): 16 mg/L (≈ 10.9 µM)
[3]; strain GC 4544
  MIC Staphylococcus aureus (GC 4544): 16 mg/L (≈ 10.9 µM)
[3]; strain GC 4545
  MIC Staphylococcus aureus (GC 4545): 16 mg/L (≈ 10.9 µM)
[3]; strain GC 4546
  MIC Staphylococcus haemolyticus (GC 4546): 16 mg/L (≈ 10.9 µM)
[3]; strain GC 4547
  MIC Coagulase Negative Staphylococcus (GC 4547): 8 mg/L (≈ 5.43 µM)
[3]; strain GC 4548
  MIC Coagulase Negative Staphylococcus (GC 4548): 8 mg/L (≈ 5.43 µM)
[3]; strain GC 4549
  MIC Coagulase Negative Staphylococcus (GC 4549): 8 mg/L (≈ 5.43 µM)
[3]; strain GC 4551
  MIC Coagulase Negative Staphylococcus (GC 4551): 16 mg/L (≈ 10.9 µM)
[3]; strain GC 6257
  MIC Coagulase Negative Staphylococcus (GC 6257): 8 mg/L (≈ 5.43 µM)
[4]; [5]
  MIC Streptococcus agalactiae (GC 4564): 2 mg/L (≈ 1.36 µM)
  MIC Streptococcus pneumoniae (ATCC 6301): 1 mg/L (≈ 0.679 µM)
  MIC Streptococcus pneumoniae (GC 1894): 0.25 mg/L (≈ 0.17 µM)
  MIC Streptococcus pneumoniae (GC 4565): 1 mg/L (≈ 0.679 µM)
  MIC Streptococcus pyogenes (GC 4563): 1 mg/L (≈ 0.679 µM)
[4]; strain ATCC 6301
  MIC Streptococcus pneumoniae (ATCC 6301): 1 mg/L (≈ 0.679 µM)
[4]; strain GC 1894
  MIC Streptococcus pneumoniae (GC 1894): 0.25 mg/L (≈ 0.17 µM)
[4]; strain GC 4563
  MIC Streptococcus pyogenes (GC 4563): 1 mg/L (≈ 0.679 µM)
[4]; strain GC 4564
  MIC Streptococcus agalactiae (GC 4564): 2 mg/L (≈ 1.36 µM)
[4]; strain GC 4565
  MIC Streptococcus pneumoniae (GC 4565): 1 mg/L (≈ 0.679 µM)
